Laboratory results: the NIST ThermoML archive (doi:10.1016/j.jct.2006.05.006)

Assay: xn = mol fraction of the nth substance listed
Details: 101 kPa, Liquid

CN1CCCC1=O [N-methylpyrrolidone] + c1ccccc1
Details | mass density [kg/m3]
293.15 K, x2 = 0 | 1032.66
293.15 K, x2 = 0.0434 | 1027.48
293.15 K, x2 = 0.1023 | 1020.3
293.15 K, x2 = 0.1625 | 1012.78
293.15 K, x2 = 0.2237 | 1004.93
293.15 K, x2 = 0.2834 | 997.06
293.15 K, x2 = 0.3457 | 988.6
293.15 K, x2 = 0.4015 | 980.8
293.15 K, x2 = 0.4865 | 968.47
293.15 K, x2 = 0.5421 | 960.08
293.15 K, x2 = 0.6154 | 948.61
293.15 K, x2 = 0.6854 | 937.17
293.15 K, x2 = 0.7549 | 925.31
293.15 K, x2 = 0.8254 | 912.73
293.15 K, x2 = 0.9002 | 898.74
293.15 K, x2 = 0.9772 | 883.6
303.15 K, x2 = 0 | 1023.42
303.15 K, x2 = 0.0444 | 1018.04
303.15 K, x2 = 0.1165 | 1009.11
303.15 K, x2 = 0.1854 | 1000.32
303.15 K, x2 = 0.2539 | 991.32
303.15 K, x2 = 0.3296 | 981.02
303.15 K, x2 = 0.3965 | 971.6
303.15 K, x2 = 0.4653 | 961.58
303.15 K, x2 = 0.5362 | 950.85
303.15 K, x2 = 0.6033 | 940.29
303.15 K, x2 = 0.6798 | 927.73
303.15 K, x2 = 0.7451 | 916.54
303.15 K, x2 = 0.8125 | 904.52
303.15 K, x2 = 0.8847 | 891.05
303.15 K, x2 = 0.9245 | 883.36
303.15 K, x2 = 0.9799 | 872.31
313.15 K, x2 = 0 | 1014.27
313.15 K, x2 = 0.0454 | 1008.7
313.15 K, x2 = 0.1054 | 1001.17
313.15 K, x2 = 0.1765 | 992
313.15 K, x2 = 0.2365 | 984.05
313.15 K, x2 = 0.2965 | 975.88
313.15 K, x2 = 0.3654 | 966.2
313.15 K, x2 = 0.4368 | 955.82
313.15 K, x2 = 0.5012 | 946.12
313.15 K, x2 = 0.5687 | 935.58
313.15 K, x2 = 0.6358 | 924.71
313.15 K, x2 = 0.6954 | 914.69
313.15 K, x2 = 0.7658 | 902.39
313.15 K, x2 = 0.8326 | 890.21
313.15 K, x2 = 0.9036 | 876.72
313.15 K, x2 = 0.9684 | 863.87
323.15 K, x2 = 0 | 1005.62
323.15 K, x2 = 0.0521 | 999.09
323.15 K, x2 = 0.1245 | 989.78
323.15 K, x2 = 0.1987 | 979.96
323.15 K, x2 = 0.2541 | 972.41
323.15 K, x2 = 0.3214 | 962.98
323.15 K, x2 = 0.3854 | 953.74
323.15 K, x2 = 0.4215 | 948.4
323.15 K, x2 = 0.4854 | 938.69
323.15 K, x2 = 0.5411 | 929.98
323.15 K, x2 = 0.6124 | 918.42
323.15 K, x2 = 0.6854 | 906.11
323.15 K, x2 = 0.7214 | 899.84
323.15 K, x2 = 0.7984 | 885.99
323.15 K, x2 = 0.8598 | 874.48
323.15 K, x2 = 0.9249 | 861.81
333.15 K, x2 = 0 | 996.28
333.15 K, x2 = 0.0451 | 990.55
333.15 K, x2 = 0.1025 | 983.11
333.15 K, x2 = 0.1632 | 975.06
333.15 K, x2 = 0.2302 | 965.93
333.15 K, x2 = 0.2987 | 956.32
333.15 K, x2 = 0.3512 | 948.74
333.15 K, x2 = 0.4215 | 938.29
333.15 K, x2 = 0.4865 | 928.31
333.15 K, x2 = 0.5521 | 917.9
333.15 K, x2 = 0.6213 | 906.51
333.15 K, x2 = 0.6895 | 894.85
333.15 K, x2 = 0.7451 | 885.02
333.15 K, x2 = 0.8145 | 872.3
333.15 K, x2 = 0.8865 | 858.55
333.15 K, x2 = 0.9654 | 842.8
343.15 K, x2 = 0 | 987.39
343.15 K, x2 = 0.0414 | 982.03
343.15 K, x2 = 0.1154 | 972.25
343.15 K, x2 = 0.1874 | 962.43
343.15 K, x2 = 0.2564 | 952.76
343.15 K, x2 = 0.3248 | 942.88
343.15 K, x2 = 0.3965 | 932.18
343.15 K, x2 = 0.4685 | 921.08
343.15 K, x2 = 0.5384 | 909.92
343.15 K, x2 = 0.5968 | 900.27
343.15 K, x2 = 0.6622 | 889.13
343.15 K, x2 = 0.7321 | 876.77
343.15 K, x2 = 0.7954 | 865.17
343.15 K, x2 = 0.8541 | 854.04
343.15 K, x2 = 0.9123 | 842.63
343.15 K, x2 = 0.9799 | 828.9

CCc1ccccc1 [ethylbenzene] + CN1CCCC1=O
Details | mass density [kg/m3]
293.15 K, x1 = 0.0854 | 1016.73
293.15 K, x1 = 0.1254 | 1009.4
293.15 K, x1 = 0.1847 | 998.68
293.15 K, x1 = 0.2475 | 987.56
293.15 K, x1 = 0.3021 | 978.07
293.15 K, x1 = 0.3654 | 967.23
293.15 K, x1 = 0.4251 | 957.16
293.15 K, x1 = 0.4985 | 944.94
293.15 K, x1 = 0.5471 | 936.92
293.15 K, x1 = 0.6012 | 928.06
293.15 K, x1 = 0.6621 | 918.17
293.15 K, x1 = 0.7214 | 908.66
293.15 K, x1 = 0.7954 | 897.01
293.15 K, x1 = 0.8451 | 889.37
293.15 K, x1 = 0.9214 | 878.1
293.15 K, x1 = 1 | 867.28
303.15 K, x1 = 0.0458 | 1014.88
303.15 K, x1 = 0.1012 | 1004.66
303.15 K, x1 = 0.1685 | 992.46
303.15 K, x1 = 0.2314 | 981.29
303.15 K, x1 = 0.2958 | 970.09
303.15 K, x1 = 0.3541 | 960.11
303.15 K, x1 = 0.4217 | 948.71
303.15 K, x1 = 0.4851 | 938.16
303.15 K, x1 = 0.5471 | 927.94
303.15 K, x1 = 0.6012 | 919.09
303.15 K, x1 = 0.6874 | 905.16
303.15 K, x1 = 0.7451 | 895.97
303.15 K, x1 = 0.8124 | 885.46
303.15 K, x1 = 0.8954 | 872.96
303.15 K, x1 = 0.9654 | 863.01
303.15 K, x1 = 1 | 858.36
313.15 K, x1 = 0.0547 | 1004.11
313.15 K, x1 = 0.1245 | 991.32
313.15 K, x1 = 0.1874 | 980.01
313.15 K, x1 = 0.2451 | 969.83
313.15 K, x1 = 0.3012 | 960.1
313.15 K, x1 = 0.3621 | 949.71
313.15 K, x1 = 0.4321 | 937.95
313.15 K, x1 = 0.4985 | 926.93
313.15 K, x1 = 0.5621 | 916.47
313.15 K, x1 = 0.6251 | 906.2
313.15 K, x1 = 0.6958 | 894.8
313.15 K, x1 = 0.7589 | 884.77
313.15 K, x1 = 0.8245 | 874.57
313.15 K, x1 = 0.9014 | 863.06
313.15 K, x1 = 0.9789 | 852.18
313.15 K, x1 = 1 | 849.38
323.15 K, x1 = 0.0654 | 993.44
323.15 K, x1 = 0.1123 | 984.81
323.15 K, x1 = 0.1785 | 972.82
323.15 K, x1 = 0.2356 | 962.68
323.15 K, x1 = 0.2959 | 952.18
323.15 K, x1 = 0.3575 | 941.62
323.15 K, x1 = 0.4154 | 931.85
323.15 K, x1 = 0.4825 | 920.66
323.15 K, x1 = 0.5415 | 910.92
323.15 K, x1 = 0.606 | 900.36
323.15 K, x1 = 0.6784 | 888.62
323.15 K, x1 = 0.7451 | 877.94
323.15 K, x1 = 0.8214 | 866
323.15 K, x1 = 0.8954 | 854.87
323.15 K, x1 = 0.9548 | 846.41
323.15 K, x1 = 1 | 840.35
333.15 K, x1 = 0.0687 | 983.52
333.15 K, x1 = 0.1254 | 973.12
333.15 K, x1 = 0.1874 | 961.93
333.15 K, x1 = 0.2454 | 951.67
333.15 K, x1 = 0.3021 | 941.83
333.15 K, x1 = 0.3654 | 931.02
333.15 K, x1 = 0.4251 | 920.99
333.15 K, x1 = 0.4784 | 912.12
333.15 K, x1 = 0.5241 | 904.57
333.15 K, x1 = 0.5864 | 894.36
333.15 K, x1 = 0.6478 | 884.37
333.15 K, x1 = 0.7012 | 875.76
333.15 K, x1 = 0.7898 | 861.71
333.15 K, x1 = 0.8457 | 853.12
333.15 K, x1 = 0.9254 | 841.39
333.15 K, x1 = 1 | 831.25
343.15 K, x1 = 0.0784 | 972.86
343.15 K, x1 = 0.1354 | 962.43
343.15 K, x1 = 0.1985 | 951.09
343.15 K, x1 = 0.2415 | 943.48
343.15 K, x1 = 0.3021 | 932.94
343.15 K, x1 = 0.3654 | 922.12
343.15 K, x1 = 0.4251 | 912.06
343.15 K, x1 = 0.4984 | 899.86
343.15 K, x1 = 0.5641 | 889.03
343.15 K, x1 = 0.6214 | 879.66
343.15 K, x1 = 0.6985 | 867.19
343.15 K, x1 = 0.7515 | 858.72
343.15 K, x1 = 0.8125 | 849.17
343.15 K, x1 = 0.8895 | 837.51
343.15 K, x1 = 0.9784 | 824.96
343.15 K, x1 = 1 | 822.11
353.15 K, x1 = 0.0874 | 962.38
353.15 K, x1 = 0.1421 | 952.35
353.15 K, x1 = 0.2032 | 941.34
353.15 K, x1 = 0.2874 | 926.52
353.15 K, x1 = 0.3451 | 916.58
353.15 K, x1 = 0.4021 | 906.9
353.15 K, x1 = 0.487 | 892.69
353.15 K, x1 = 0.5474 | 882.68
353.15 K, x1 = 0.612 | 872.06
353.15 K, x1 = 0.6874 | 859.79
353.15 K, x1 = 0.7458 | 850.42
353.15 K, x1 = 0.8211 | 838.6
353.15 K, x1 = 0.8954 | 827.4
353.15 K, x1 = 0.9445 | 820.37
353.15 K, x1 = 0.98 | 815.52
353.15 K, x1 = 1 | 812.9
